# Test results: patent publication US11690810B2, “Combination treatment of bacterial infection” (The Chinese University of Hong Kong, priority 2018, dated 2023)
# Like-named read-outs stand apart in the source and are kept apart here.
# Experiments:
# [1] = system: S. aureus SA-RN4220-pUL5054 (RN4220); experiment: MIC and checkerboard (FIC) assay; details: Staphylococcus aureus
# MRSA SA-ST239 = experiment: MIC and checkerboard (FIC) assay; details: for FIC / MIC combine: ST239
# CA-MRSA strain ST30 = experiment: MIC and checkerboard (FIC) assay; format: cell-based, Staphylococcus aureus; details: Staphylococcus aureus, MRSA
# [2] = system: S. aureus SA-1199B (NorA efflux pump overexpressed); experiment: MIC and checkerboard (FIC) assay; details: Staphylococcus aureus; for MIC: read-out: Minimum inhibitory concentration to compound (MIC), 1199B′, Table 8
# [3] = system: S. aureus SA-ANT4′ (ANT4), resistant to fusidic acid; experiment: MIC and checkerboard (FIC) assay; details: Staphylococcus aureus; for MIC: read-out: Minimum inhibitory concentration to compound (MIC)
# [4] = system: S. aureus SA-APH2″-AAC6′ (APH2), resistant to gentamicin; experiment: MIC and checkerboard (FIC) assay; details: for FIC / MIC combine: APH2″-AAC6′
# [5] = system: S. aureus SA-APH3′ (APH3), resistant to kanamycin; experiment: MIC and checkerboard (FIC) assay; details: Staphylococcus aureus; for MIC: read-out: Minimum inhibitory concentration to compound (MIC)
# [6] = system: panel of laboratory MRSA strains; experiment: MIC and combination tests, panel of laboratory strains; details: tanshinone highest tested concentration 128 μg/ml
# [7] = system: S. aureus ATCC25923 (methicillin sensitive); experiment: MIC and checkerboard (FIC) assay; details: Staphylococcus aureus
# [8] = read-out: Activity (MIC, μg/ml)
# [9] = Staphylococcus aureus, MRSA, read-out: Activity (MIC, μg/ml)
# [10] = read-out: Minimum inhibitory concentration to compound (MIC)
# [11] = Staphylococcus aureus, MRSA, read-out: MIC alone
# [12] = Staphylococcus aureus, read-out: MIC alone
# [13] = Staphylococcus aureus, read-out: Minimum inhibitory concentration to compound (MIC)
# [14] = ST30, Table 8, read-out: Minimum inhibitory concentration to compound (MIC)
# [15] = ST30, read-out: Activity (MIC, μg/ml)
Compound,"MIC [1, 8] [µg/mL]",MIC (MRSA SA-ST239; [9]) [µg/mL],"MIC [1, 10] [µg/mL]",MIC [2] [µg/mL],MIC (MRSA SA-ST239; [11]) [µg/mL],MIC [3] [µg/mL],"MIC [4, 12] [µg/mL]","MIC [4, 13] [µg/mL]",MIC [5] [µg/mL],MIC (CA-MRSA strain ST30; [14]) [µg/mL],MIC (CA-MRSA strain ST30; [15]) [µg/mL],also measured
C=C(C)C(CC=C(C)C)Cc1c(OC)cc(OC)c(C(=O)/C=C/c2ccccc2O)c1OC (stereo not shown) [WQD-98],> 256,> 256,,,,,,,,,,MIC (CA-MRSA strain ST30; [8]): > 256 µg/mL
C=C(C)C(CC=C(C)C)Cc1c(O)cc(OC)c(C(=O)/C=C/c2ccccc2O)c1O (stereo not shown) [WQD-165],,4,8,8,4,8,4,4,4,32,32,FIC (MRSA SA-ST239; ECG with WQD-165): 1; MIC combine (MRSA SA-ST239; ECG with WQD-165): 4 µg/mL; FIC ([4]; ECG with WQD-165): 1; MIC combine ([4]; ECG with WQD-165): 4 µg/mL
C=C(C)C(CC=C(C)C)Cc1c(OC)cc(OC)c(C(=O)/C=C/c2ccc(OCOC)cc2OCOC)c1OC (stereo not shown) [Compound A],> 256,,,,,,,,,,,
"O=C(O)c1cc(O)c(O)c(O)c1 [Gallic acid, 3,4,5-trihydroxybenzoic acid]",,,,,,,,,,,,"MIC90 [1]: 512 µg/mL; MIC99 ([1]; read-out: MIC 99.9): > 512 µg/mL; MIC90 [2]: 512 µg/mL; MIC99 ([2]; read-out: MIC 99.9): > 512 µg/mL; MIC90 (MRSA SA-ST239; Staphylococcus aureus, MRSA): 256 µg/mL; MIC99 (MRSA SA-ST239; Staphylococcus aureus, MRSA, read-out: MIC 99.9): > 512 µg/mL; MIC90 [3]: 512 µg/mL; MIC99 ([3]; read-out: MIC 99.9): > 512 µg/mL; MIC90 ([4]; Staphylococcus aureus): 512 µg/mL; MIC99 ([4]; Staphylococcus aureus, read-out: MIC 99.9): > 512 µg/mL; MIC90 [5]: 512 µg/mL; MIC99 ([5]; read-out: MIC 99.9): > 512 µg/mL; activity against the tested MRSA strains when used alone [6]: relatively weak; MIC90 ([7]; ATCC25923): 256 µg/mL; MIC99 ([7]; ATCC25923, read-out: MIC 99.9): > 512 µg/mL"
C=C(C)C(CC=C(C)C)Cc1c(OC)cc(OC)c(C(=O)/C=C/c2ccc(OCc3ccccc3)cc2OCc2ccccc2)c1OC (stereo not shown) [WQD-8],> 256,> 256,,,,,,,,,,MIC (CA-MRSA strain ST30; [8]): > 256 µg/mL
C=C(C)C(CC=C(C)C)Cc1c(O)cc(OC)c(C(=O)/C=C/c2ccc(O)cc2)c1O (stereo not shown) [WQD-175],,4,8,8,4,8,4,4,4,16,16,FIC (MRSA SA-ST239; ECG with WQD-175): 1; MIC combine (MRSA SA-ST239; ECG with WQD-175): 4 µg/mL; FIC ([4]; ECG with WQD-175): 1; MIC combine ([4]; ECG with WQD-175): 4 µg/mL
"C=C(C)C(CC=C(C)C)Cc1c(O)cc(OC)c(C(=O)/C=C/c2ccc(O)cc2OC)c1O (racemic) [WQD-164, (E)-1-(2,4-dihydroxy-6-methoxy-3-(5-methyl-2-(prop-1-en-2-yl)hex-4-en-1-yl)phenyl)-3-(4-hydroxy-2-methoxyphenyl)prop-2-en-1-one]",,32,64,64,32,32,16,16,32,128,128,FIC (MRSA SA-ST239; ECG with WQD-164): 0.50; MIC combine (MRSA SA-ST239; ECG with WQD-164): 4 µg/mL; FIC ([4]; ECG with WQD-164): 0.50; MIC combine ([4]; ECG with WQD-164): 8 µg/mL
